From PubChem BioAssay (NCI)
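GI50: concentration for 50% inhibition of growth. TGI denotes the concentration required for complete inhibition of growth.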

Legend:
Test in all cases: NCI tumour cell line growth inhibition, 384-well format
ACHN renal = test system: ACHN renal
NCI-H460 NSCLC = test system: NCI-H460 NSCLC
SW-620 colon = test system: SW-620 colon
SF-268 CNS = test system: SF-268 CNS
U251 glioblastoma = test system: U251 glioblastoma
NCI/ADR-RES ovarian = test system: NCI/ADR-RES ovarian
COLO 205 colon = test system: COLO 205 colon
NCI-H522 lung = test system: NCI-H522 lung
CAKI-1 renal = test system: CAKI-1 renal
A498 renal = test system: A498 renal
RPMI-8226 leukemia = test system: RPMI-8226 leukemia
MALME-3M melanoma = test system: MALME-3M melanoma
IGROV1 ovarian = test system: IGROV1 ovarian
SF-539 CNS = test system: SF-539 CNS
SK-OV-3 ovarian = test system: SK-OV-3 ovarian
SF-295 CNS = test system: SF-295 CNS
MOLT-4 leukemia = test system: MOLT-4 leukemia
MDA-MB-468 breast = test system: MDA-MB-468 breast
SN12C renal = test system: SN12C renal
KM12 colon = test system: KM12 colon
HS 578T breast = test system: HS 578T breast
SK-MEL-5 melanoma = test system: SK-MEL-5 melanoma
SNB-75 CNS = test system: SNB-75 CNS
TK-10 renal = test system: TK-10 renal
UACC-62 melanoma = test system: UACC-62 melanoma
BT-549 breast = test system: BT-549 breast
SK-MEL-28 melanoma = test system: SK-MEL-28 melanoma
SR leukemia = test system: SR leukemia
RXF 393 renal = test system: RXF 393 renal
NCI-H226 lung = test system: NCI-H226 lung
SNB-19 CNS = test system: SNB-19 CNS
EKVX NSCLC = test system: EKVX NSCLC
OVCAR-8 ovarian = test system: OVCAR-8 ovarian
SK-MEL-2 melanoma = test system: SK-MEL-2 melanoma
PC-3 prostate = test system: PC-3 prostate
HCC-2998 colon = test system: HCC-2998 colon
M14 melanoma = test system: M14 melanoma
HOP-92 NSCLC = test system: HOP-92 NSCLC
OVCAR-4 ovarian = test system: OVCAR-4 ovarian
T-47D breast = test system: T-47D breast
NCI-H23 lung = test system: NCI-H23 lung
HL-60(TB) leukemia = test system: HL-60(TB) leukemia
NCI-H322M lung = test system: NCI-H322M lung
MDA-MB-435 melanoma = test system: MDA-MB-435 melanoma
786-0 renal = test system: 786-0 renal
DU-145 prostate = test system: DU-145 prostate
HCT-15 colon = test system: HCT-15 colon
OVCAR-3 ovarian = test system: OVCAR-3 ovarian
UACC-257 melanoma = test system: UACC-257 melanoma
MCF7 breast = test system: MCF7 breast
HT29 colon = test system: HT29 colon
CCRF-CEM leukemia = test system: CCRF-CEM leukemia
MDA-MB-231 breast = test system: MDA-MB-231 breast
OVCAR-5 ovarian = test system: OVCAR-5 ovarian
HOP-62 NSCLC = test system: HOP-62 NSCLC
A549 NSCLC = test system: A549 NSCLC

Structure (SMILES): C=C1C(=O)OC(CCCCCCCC)C1C(=O)O (configuration not stated)
- GI50 (ACHN renal): 21.4 µM
- TGI (ACHN renal): 39.3 µM
- GI50 (NCI-H460 NSCLC): 17.1 µM
- TGI (NCI-H460 NSCLC): 31.3 µM
- GI50 (SW-620 colon): 18.7 µM
- TGI (SW-620 colon): 33.2 µM
- GI50 (SF-268 CNS): 19 µM
- TGI (SF-268 CNS): 37 µM
- GI50 (U251 glioblastoma): 20.6 µM
- TGI (U251 glioblastoma): 37.9 µM
- GI50 (NCI/ADR-RES ovarian): 22.3 µM
- TGI (NCI/ADR-RES ovarian): 46.2 µM
- GI50 (COLO 205 colon): 25.5 µM
- TGI (COLO 205 colon): 40.4 µM
- GI50 (NCI-H522 lung): 6.51 µM
- TGI (NCI-H522 lung): 19.2 µM
- GI50 (CAKI-1 renal): 16.5 µM
- TGI (CAKI-1 renal): 30.7 µM
- GI50 (A498 renal): 22.1 µM
- TGI (A498 renal): 45.5 µM
- GI50 (RPMI-8226 leukemia): 10.3 µM
- TGI (RPMI-8226 leukemia): 22.1 µM
- GI50 (MALME-3M melanoma): 15.5 µM
- TGI (MALME-3M melanoma): 29.2 µM
- GI50 (IGROV1 ovarian): 19.2 µM
- TGI (IGROV1 ovarian): 37.4 µM
- GI50 (SF-539 CNS): 20.1 µM
- TGI (SF-539 CNS): 34.9 µM
- GI50 (SK-OV-3 ovarian): 23.6 µM
- TGI (SK-OV-3 ovarian): 45.2 µM
- GI50 (SF-295 CNS): 23.5 µM
- TGI (SF-295 CNS): 57.5 µM
- GI50 (MOLT-4 leukemia): 14.6 µM
- TGI (MOLT-4 leukemia): 27.9 µM
- GI50 (MDA-MB-468 breast): 3.04 µM
- TGI (MDA-MB-468 breast): 6.75 µM
- GI50 (SN12C renal): 19 µM
- TGI (SN12C renal): 36.1 µM
- GI50 (KM12 colon): 14.6 µM
- TGI (KM12 colon): 28.2 µM
- GI50 (HS 578T breast): 12.2 µM
- TGI (HS 578T breast): 25.5 µM
- GI50 (SK-MEL-5 melanoma): 18.3 µM
- TGI (SK-MEL-5 melanoma): 32.5 µM
- GI50 (SNB-75 CNS): 16.1 µM
- TGI (SNB-75 CNS): 32.1 µM
- GI50 (TK-10 renal): 34.3 µM
- TGI (TK-10 renal): > 100 µM
- GI50 (UACC-62 melanoma): 33.9 µM
- TGI (UACC-62 melanoma): > 100 µM
- GI50 (BT-549 breast): 14.8 µM
- TGI (BT-549 breast): 38.3 µM
- GI50 (SK-MEL-28 melanoma): 23.3 µM
- TGI (SK-MEL-28 melanoma): 46.8 µM
- GI50 (SR leukemia): 3.03 µM
- TGI (SR leukemia): 9.89 µM
- GI50 (RXF 393 renal): 11.5 µM
- TGI (RXF 393 renal): 24.1 µM
- GI50 (NCI-H226 lung): 27.9 µM
- TGI (NCI-H226 lung): 49.7 µM
- GI50 (SNB-19 CNS): 22.4 µM
- TGI (SNB-19 CNS): 47.3 µM
- GI50 (EKVX NSCLC): 20.4 µM
- TGI (EKVX NSCLC): 37.7 µM
- GI50 (OVCAR-8 ovarian): 24.9 µM
- TGI (OVCAR-8 ovarian): 54.9 µM
- GI50 (SK-MEL-2 melanoma): 28.7 µM
- TGI (SK-MEL-2 melanoma): 46.6 µM
- GI50 (PC-3 prostate): 21 µM
- TGI (PC-3 prostate): 39.1 µM
- GI50 (HCC-2998 colon): 20.6 µM
- TGI (HCC-2998 colon): 35.2 µM
- GI50 (M14 melanoma): 17.8 µM
- TGI (M14 melanoma): 34.5 µM
- GI50 (HOP-92 NSCLC): 19.8 µM
- TGI (HOP-92 NSCLC): 41.1 µM
- GI50 (OVCAR-4 ovarian): 16.9 µM
- TGI (OVCAR-4 ovarian): 32.1 µM
- GI50 (T-47D breast): 18.2 µM
- TGI (T-47D breast): 32.3 µM
- GI50 (NCI-H23 lung): 14 µM
- TGI (NCI-H23 lung): 27.6 µM
- GI50 (HL-60(TB) leukemia): 13.5 µM
- TGI (HL-60(TB) leukemia): 26.4 µM
- GI50 (NCI-H322M lung): 24.3 µM
- TGI (NCI-H322M lung): 50.3 µM
- GI50 (MDA-MB-435 melanoma): 23.3 µM
- TGI (MDA-MB-435 melanoma): 44 µM
- GI50 (786-0 renal): 16.7 µM
- TGI (786-0 renal): 31.6 µM
- GI50 (DU-145 prostate): 17.4 µM
- TGI (DU-145 prostate): 31.5 µM
- GI50 (HCT-15 colon): 19.4 µM
- TGI (HCT-15 colon): 37.1 µM
- GI50 (OVCAR-3 ovarian): 12.8 µM
- TGI (OVCAR-3 ovarian): 26.2 µM
- GI50 (UACC-257 melanoma): 12.7 µM
- TGI (UACC-257 melanoma): 27.3 µM
- GI50 (MCF7 breast): 21.1 µM
- TGI (MCF7 breast): 39.6 µM
- GI50 (HT29 colon): 23.4 µM
- TGI (HT29 colon): 49.4 µM
- GI50 (CCRF-CEM leukemia): 12.2 µM
- TGI (CCRF-CEM leukemia): 24.8 µM
- GI50 (MDA-MB-231 breast): 30.3 µM
- TGI (MDA-MB-231 breast): > 100 µM
- GI50 (OVCAR-5 ovarian): 39.3 µM
- TGI (OVCAR-5 ovarian): > 100 µM
- GI50 (HOP-62 NSCLC): 12.9 µM
- TGI (HOP-62 NSCLC): 28.6 µM
- GI50 (A549 NSCLC): 20.9 µM
- TGI (A549 NSCLC): 41.8 µM
